Results from US20130287700A1, “COMPOUNDS FOR THE DIAGNOSIS OF NEURODEGENERATIVE DISORDERS ON THE OLFACTORY EPITHELIUM” (KLINIKUM DARMSTADT GMBH, priority 2010, published 2013).
“Also recorded” adds a separate entry of the source.

How the values were obtained:
Aβ plaque = assay: Staining of tissue sections with the dyes, fluorescence microscopy: Aβ deposits in brain/hippocampus; format: binding, human; conditions: hippocampus, AD+
Description: (§1) Tissue samples were fixed in 10% buffered formalin solution and embedded in paraffin. Slices of 4 μm thickness were prepared using a microtome and mounted on a slide in a water bath. Deparaffinization was carried out according to the following steps:
(§2) Xylene 15 min, 100% ethanol 10 min, 96% ethanol 10 min, 70% ethanol 10 min and storage in water until staining.
(§3) Staining with dyes of this invention was subsequently performed according to the following procedure steps:
(§4) Dyes of the present invention were applied in 0.01-1% ethanolic or methanolic solution dropwise onto the tissue section (50-200 μL) and incubated in a moist, EtOH/MeOH saturated and light-protected chamber for 10 min.
(§5) In the case of poorly soluble substances, up to 10% DMSO were added and, if required, filtered through a syringe filter (0.45 μm pore size).
(§6) Samples were stained with dyes of the present invention as described in example 21 and subsequently investigated using a Zeiss Axioskop, ABO 100 Hg fluorescent lamp, camera: Leica DFC300FX. Depending on the respective dye used, either a FITC filter or a DAPI filter was utilized.

Tau fibril = assay: Staining of tissue sections with the dyes, fluorescence microscopy: Tau in hippocampus; format: binding, human; conditions: person, AD, DAPI filter
Description: as §1, §2, §3, §4, §5, §6

## Cn1cccc1/C=C/c1cc(/C=C/c2cccn2C)ncn1 [BSc4327, 4,6-Bis((E)-2-(1-methyl-1H-pyrrol-2-yl)vinyl)pyrimidine]
Aβ plaque; FITC filter
  Structure stained by the dye: Aβ in angiopathy

## CSc1nc(/C=C/c2ccc(N(C)C)cc2)cc(/C=C/c2ccc(N(C)C)cc2)n1 [BSc4097, 4,4′-(1E,1′E)-2,2′-(2-(methylthio)pyrimidine-4,6-diyl)bis(ethene-2,1-diyl)bis(N,N-dimethylaniline)]
Aβ plaque; DAPI filter
  Structure stained by the dye: Aβ plaque

## CN(C)c1ccc(/C=C/c2cc(/C=C/c3ccc(N(C)C)cc3)ncn2)cc1 [BSc4090, 4-((1E)-2-(6-(4-(dimethylamino)styryl)pyrimidine-4-yl)vinyl)-N,N-dimethylbenzenamine]
Aβ plaque; DAPI filter
  Structure stained by the dye: Aβ plaque
Aβ plaque; FITC filter
  Structure stained by the dye: Aβ plaque

## O=C(NCc1cccc(F)c1)Nc1ccc2nonc2c1 [BSc4138, 1-(Benzo[c][1,2,5]oxadiazol-5-yl)-3-(3-fluorobenzyl)urea]
Aβ plaque; DAPI filter
  Structure stained by the dye: Aβ plaque
Tau fibril
  Structure stained by the dye: Tau fibril

## COc1ccc(/C=C/c2cnc(/C=C/c3ccc(OC)cc3)cn2)cc1 [BSc4354, 2,5-Bis(4-methoxystyryl)pyrazine]
Aβ plaque; FITC filter
  Structure stained by the dye: Aβ in angiopathy; also recorded: Aβ plaque

## C(=C\c1cccc2ccccc12)/c1cc(/C=C/c2cccc3ccccc23)ncn1 [BSc4328, 4,6-Bis((E)-2-(naphthalene-1-yl)vinyl)pyrimidine]
Aβ plaque; DAPI filter
  Structure stained by the dye: Aβ plaque

## CCN(CC)c1ccc2cc(-c3csc(NNC(=O)c4cccnc4)n3)c(=O)oc2c1 [BSc4007, N′-(4-(7-(diethylamino)-2-oxo-2H-chromen-3-yl)thiazol-2-yl)nicotinohydrazide]
Tau fibril
  Structure stained by the dye: Tau fibril

## Cn1cccc1/C=C/c1cnc(/C=C/c2cccn2C)cn1 [BSc4353, 2,5-Bis((E)-2-(1-methyl-1H-pyrrol-2-yl)vinyl)pyrazine]
Aβ plaque; FITC filter
  Structure stained by the dye: Aβ in angiopathy; also recorded: Aβ plaque

## Cn1c2ccccc2c2cc(/C=N\Nc3ccc(-c4nc5ccccc5s4)cc3)ccc21 [BSc4342, (Z)-1-(4-(benzo[d]thiazol-2-yl)phenyl)-2-((9-methyl-9H-carbazol-3-yl)methylene)hydrazin]
Aβ plaque; DAPI filter
  Structure stained by the dye: Aβ plaque

## C(=N/Nc1ccc(-c2nc3ccccc3s2)cc1)/c1cccnc1 [BSc4337, (Z)-1-(4-(benzo[d]thiazol-2-yl)phenyl)-2-((pyridine-3-yl)methylene)hydrazine]
Aβ plaque; DAPI filter
  Structure stained by the dye: Aβ plaque

## CN(C)c1ccc(/C=C/c2cnc(/C=C/c3ccc(N(C)C)cc3)cn2)cc1 [BSc4352, 4,4′-(1E,1′E)-2,2′-(pyrazine-2,5-diyl)bis(ethene-2,1-diyl)bis(N,N-dimethylaniline)]
Aβ plaque; DAPI filter
  Structure stained by the dye: Aβ plaque
